Assay results from patent publication US6441028B2, “Microbicidal compositions” (Bayer Aktiengesellschaft, priority 1995, dated 2002).

Tests used:
Phytophthora = settings: mixture of the labelled component I, in particular in combination with metalaxyl (II A), benalaxyl (II D) or R-metalaxyl (II B); potato (Bintje); a) spray 0.02% of active ingredient, b) 0.002% based on soil volume; 5 days incubation
Description: 2-3 week old potato plants (Bintje variety) are grown for 3 weeks and then sprayed with a spray mixture (0.02% of active ingredient) prepared with a wettable powder of the active ingredient. After 24 hours, the treated plants are infected with a sporangia suspension of the fungus. The fungus infestation is assessed after the infected plants have been incubated for 5 days at a relative atmospheric humidity of 90-100% and 20° C.
A spray mixture (0.002% of active ingredient based on the soil volume) prepared with a wettable powder of the active ingredient is poured next to 2-3 week old potato plants (Bintje variety) which have been grown for 3 weeks. […] After 48 hours, the treated plants are infected with a sporangia suspension of the fungus. Fungus infestation is assessed after the infected plants have been incubated for 5 days at a relative atmospheric humidity of 90-100% and 20° C.

Plasmopara viticola = assay: Activity against Plasmopara viticola in grapevines; settings: mixture of the labelled component I with component II = ofurace (II E), oxadixyl (II F), or in particular metalaxyl (II A) or R-metalaxyl (II B); grapevine seedlings; 0.02% of active ingredient; assessed 6 days after infection
Description: Grapevine seedlings at the 4-to-5-leaf stage are sprayed to drip point with an aqueous spray mixture prepared with a wettable powder of the active ingredient mixture (0.02% of active ingredient) and, 24 hours later, infected with a sporangia suspension of the fungus. The fungus infestation is assessed 6 days after infection, during which time a relative atmospheric humidity of 95 to 100% and a temperature of 20° are maintained.

Puccinia recondita = assay: Activity against Puccinia recondita in wheat (residual-protective and systemic action); format: in vivo; settings: mixture of the labelled component I with component II; wheat; a) spray 0.02% of active ingredient, b) 0.006% based on soil volume; assessed 12 days after infection
Erysiphe graminis = assay: Activity against Erysiphe graminis in barley (residual-protective and systemic action); format: in vivo; settings: mixture of the labelled component I with component II; barley; a) spray 0.02% of active ingredient, b) 0.002% based on soil volume; assessed 12 days after infection
Description: The infected plants are placed in a greenhouse at 22°. The fungus infestation is assessed 12 days after the infection. […] 48 hours later, the plants are dusted with conidia of the fungus. The infected plants are placed in a greenhouse at 22°. The fungus infestation is assessed 12 days after the infection.

Fusarium nivale = assay: Activity against Fusarium nivale in rye (seed dressing, field); format: in vivo; settings: mixture of the labelled component I with component II, rye cv. Tetrahell seed dressing, 20 or 6 ppm of a.i. based on seed weight
Description: which has been infected naturally with Fusarium nivale is dressed with the test fungicide in a roller mixer, the following concentrations being used: 20 or 6 ppm of a.i. (based on the seed weight). The infected and treated rye is sown in the open in October in plots of 3 m length and 6 seed rows, using a seed drill. 3 replications per concentration. Until the disease level is evaluated, the experimental field is subjected to the field conditions of normal crop management (preferably in a region with unbroken snow cover during the winter months). To assess the phytotoxicity, seedling emergence is scored in autumn and plant density/tillering in spring. To assess the activity of the active ingredient, the percentage of Fusarium-infected plants is evaluated early in the year, immediately after the snows have melted.

Botrytis cinerea = assay: Activity against Botrytis cinerea on apple fruits (residual-protective action); format: in vivo; settings: mixture of the labelled component I with component II = furalaxyl (II C), metalaxyl (II A) or R-metalaxyl (II B); damaged apples; 0.02% of active ingredient; one week incubation
Description: The treated fruits are subsequently inoculated with a spore suspension of the fungus and incubated for one week at high atmospheric humidity and approximately 20° C. The fungicidal activity of the test substance is deduced from the number of the sites of damage where rotting has been observed.

Phytophthora infestans = format: in vivo; settings: mixture of the labelled component I with component II = oxadixyl (II F), ofurace (II E), or in particular metalaxyl (II A) or R-metalaxyl (II B); tomato cv. Roter Gnom; a) curative 200 ppm, b) preventive-systemic 60 ppm relative to soil volume
Cercospora arachidicola = assay: Residual-protective action against Cercospora arachidicola in groundnuts; format: in vivo; settings: mixture of the labelled component I with component II; groundnut plants; 0.02% of active ingredient; assessed 12 days after infection
Description: The plants are incubated for 72 hours at 21° and high atmospheric humidity and subsequently placed in a greenhouse until the typical foliar lesions appear. The activity of the active ingredient is assessed 12 days after the infection on the basis of number and size of the foliar lesions.

Septoria nodorum = assay: Activity against Septoria nodorum in wheat; format: in vivo; settings: mixture of the labelled component I with component II; wheat 3-leaf stage; 60 ppm of a.i.; assessed 13 days after infection
Description: 13 days after the infection, the fungus infestation is assessed.

## CON=C(C(=O)OC)c1ccccc1CON=C(C)c1ccc2c(c1)OC(F)(F)O2 [(6), methyl 2-[α-{[(α-methyl-3,4-(difluoromethylenedioxy)benzyl)imino]-oxy}-o-tolyl]glyoxylate O-methyloxime]
Phytophthora
  synergistic effect of active ingredient mixture (fungus infestation): good synergistic effect
Plasmopara viticola
  synergistic effect of active ingredient mixture (fungus infestation): marked synergistic effect
Puccinia recondita
  synergistic effect of active ingredient mixture (fungus infestation): good synergistic effect
Erysiphe graminis
  synergistic effect of active ingredient mixture (fungus infestation): good synergistic effect
Fusarium nivale
  synergistic effect of active ingredient mixture (percentage of Fusarium-infected plants): good synergistic effect

## CON=C(C(=O)OC)c1ccccc1CON=C(c1ccc(F)cc1)C1CC1 [(09), methyl 2-[α-{[(α-cyclopropyl-4-fluorobenzyl)imino]oxy}-o-tolyl]glyoxylate O-methyloxime]
Botrytis cinerea
  activity of active ingredient mixture (number of sites of damage with rotting): markedly increased activity
Puccinia recondita
  synergistic effect of active ingredient mixture (fungus infestation): good synergistic effect
Erysiphe graminis
  synergistic effect of active ingredient mixture (fungus infestation): good synergistic effect

## COC=C(C(=O)OC)c1ccccc1CON=C(C)c1ccc2c(c1)OCO2 [(12), methyl 3-methoxy-2-[α-{[(α-methyl-3,4-methylenedioxybenzyl)imino]oxy}-o-tolyl]acrylate]
Phytophthora infestans
  synergistic effect of active ingredient mixture (number and size of foliar lesions): good synergistic effect
Phytophthora
  synergistic effect of active ingredient mixture (fungus infestation): good synergistic effect
Plasmopara viticola
  synergistic effect of active ingredient mixture (fungus infestation): marked synergistic effect

## CON=C(C(=O)OC)c1ccccc1CON=C(c1ccc(Cl)cc1)C1CC1 [(15), methyl 2-[α-{[(α-cyclopropyl-4-chlorobenzyl)imino]oxy}-o-tolyl]glyoxylate O-methyloxime]
Phytophthora infestans
  synergistic effect of active ingredient mixture (number and size of foliar lesions): good synergistic effect
Botrytis cinerea
  activity of active ingredient mixture (number of sites of damage with rotting): markedly increased activity
Phytophthora
  synergistic effect of active ingredient mixture (fungus infestation): good synergistic effect
Plasmopara viticola
  synergistic effect of active ingredient mixture (fungus infestation): marked synergistic effect
Puccinia recondita
  synergistic effect of active ingredient mixture (fungus infestation): good synergistic effect
Cercospora arachidicola
  activity of active ingredient mixture (number and size of foliar lesions): markedly increased activity
Erysiphe graminis
  synergistic effect of active ingredient mixture (fungus infestation): good synergistic effect

## COC=C(C(=O)OC)c1ccccc1CON=C(C)c1cccc(OC(F)(F)F)c1 [(18), methyl 3-methoxy-2-[α-{[(α-methyl-3-trifluoromethoxybenzyl)imino]oxy}-o-tolyl]acrylate]
Botrytis cinerea
  activity of active ingredient mixture (number of sites of damage with rotting): markedly increased activity
Phytophthora
  synergistic effect of active ingredient mixture (fungus infestation): good synergistic effect
Plasmopara viticola
  synergistic effect of active ingredient mixture (fungus infestation): marked synergistic effect
Puccinia recondita
  synergistic effect of active ingredient mixture (fungus infestation): good synergistic effect
Cercospora arachidicola
  activity of active ingredient mixture (number and size of foliar lesions): markedly increased activity
Erysiphe graminis
  synergistic effect of active ingredient mixture (fungus infestation): good synergistic effect
Fusarium nivale
  synergistic effect of active ingredient mixture (percentage of Fusarium-infected plants): good synergistic effect

## COC=C(C(=O)OC)c1ccccc1CON=C(C)c1cccc(C(F)(F)F)c1 [(24), methyl 3-methoxy-2-[α-{[(α-methyl-3-trifluoromethylbenzyl)imino]oxy}-o-tolyl]acrylate]
Phytophthora infestans
  synergistic effect of active ingredient mixture (number and size of foliar lesions): good synergistic effect
Botrytis cinerea
  activity of active ingredient mixture (number of sites of damage with rotting): markedly increased activity
Phytophthora
  synergistic effect of active ingredient mixture (fungus infestation): good synergistic effect
Septoria nodorum
  activity of active ingredient mixture (fungus infestation): markedly increased activity
Cercospora arachidicola
  activity of active ingredient mixture (number and size of foliar lesions): markedly increased activity
Erysiphe graminis
  synergistic effect of active ingredient mixture (fungus infestation): good synergistic effect

## CON=C(C(=O)OC)c1ccccc1CON=C(C)c1ccc(Cl)cc1 [(25), methyl 2-[α-{[(α-methyl-4-chlorobenzyl)imino]oxy}-o-tolyl]glyoxylate O-methyloxime]
Septoria nodorum
  activity of active ingredient mixture (fungus infestation): markedly increased activity
Erysiphe graminis
  synergistic effect of active ingredient mixture (fungus infestation): good synergistic effect

## COC=C(C(=O)OC)c1ccccc1CON=C(C)c1ccc(Cl)cc1 [(26), methyl 3-methoxy-2-[α-{[(α-methyl-4-chlorobenzyl)imino]oxy}-o-tolyl]acrylate]
Cercospora arachidicola
  activity of active ingredient mixture (number and size of foliar lesions): markedly increased activity
Fusarium nivale
  synergistic effect of active ingredient mixture (percentage of Fusarium-infected plants): good synergistic effect

## COC=C(C(=O)OC)c1ccccc1CON=C(C)c1ccc2c(c1)OC(F)(F)O2 [(29), methyl 3-methoxy-2-[α-{[(α-methyl-3,4-(difluoromethylenedioxy)benzyl)-imino]oxy}-o-tolyl]acrylate]
Puccinia recondita
  synergistic effect of active ingredient mixture (fungus infestation): good synergistic effect

## CON=C(C(=O)OC)c1ccccc1CON=C(C)c1cccc(OC(F)(F)F)c1 [(32), methyl 2-[α-{[(α-methyl-3-trifluoromethoxybenzyl)imino]oxy}-o-tolyl]glyoxylate O-methyloxime]
Phytophthora infestans
  synergistic effect of active ingredient mixture (number and size of foliar lesions): good synergistic effect
Botrytis cinerea
  activity of active ingredient mixture (number of sites of damage with rotting): markedly increased activity
Phytophthora
  synergistic effect of active ingredient mixture (fungus infestation): good synergistic effect
Plasmopara viticola
  synergistic effect of active ingredient mixture (fungus infestation): marked synergistic effect
Puccinia recondita
  synergistic effect of active ingredient mixture (fungus infestation): good synergistic effect
Septoria nodorum
  activity of active ingredient mixture (fungus infestation): markedly increased activity
Cercospora arachidicola
  activity of active ingredient mixture (number and size of foliar lesions): markedly increased activity
Erysiphe graminis
  synergistic effect of active ingredient mixture (fungus infestation): good synergistic effect
Fusarium nivale
  synergistic effect of active ingredient mixture (percentage of Fusarium-infected plants): good synergistic effect

## CON=C(C(=O)OC)c1ccccc1CON=C(C)c1cccc(C(F)(F)F)c1 [(35), methyl 2-[α-{[(α-methyl-3-trifluoromethylbenzyl)imino]oxy}-o-tolyl]glyoxylate O-methyloxime]
Phytophthora infestans
  synergistic effect of active ingredient mixture (number and size of foliar lesions): good synergistic effect
Botrytis cinerea
  activity of active ingredient mixture (number of sites of damage with rotting): markedly increased activity
Phytophthora
  synergistic effect of active ingredient mixture (fungus infestation): good synergistic effect
Plasmopara viticola
  synergistic effect of active ingredient mixture (fungus infestation): marked synergistic effect
Puccinia recondita
  synergistic effect of active ingredient mixture (fungus infestation): good synergistic effect
Septoria nodorum
  activity of active ingredient mixture (fungus infestation): markedly increased activity
Erysiphe graminis
  synergistic effect of active ingredient mixture (fungus infestation): good synergistic effect

## COC=C(C(=O)OC)c1ccccc1CON=C(c1ccc(Cl)cc1)C1CC1 [(36), methyl 3-methoxy-2-[α-{[(α-cyclopropyl-4-chlorobenzyl)imino]oxy}-o-tolyl]acrylate]
Phytophthora infestans
  synergistic effect of active ingredient mixture (number and size of foliar lesions): good synergistic effect
Botrytis cinerea
  activity of active ingredient mixture (number of sites of damage with rotting): markedly increased activity
Septoria nodorum
  activity of active ingredient mixture (fungus infestation): markedly increased activity
Cercospora arachidicola
  activity of active ingredient mixture (number and size of foliar lesions): markedly increased activity
Erysiphe graminis
  synergistic effect of active ingredient mixture (fungus infestation): good synergistic effect

## CON=C(C(=O)OC)c1ccccc1CON=C(c1ccc(C(F)(F)F)cc1)C1CC1 [(37)]
Erysiphe graminis
  synergistic effect of active ingredient mixture (fungus infestation): good synergistic effect

## CON=C(C(=O)OC)c1ccccc1CON=C(c1ccc(OC(F)(F)F)cc1)C1CC1 [(38), methyl 2-[α-{[(α-cyclopropyl-4-trifluoromethoxybenzyl)imino]oxy}-o-tolyl]glyoxylate O-methyloxime]
Cercospora arachidicola
  activity of active ingredient mixture (number and size of foliar lesions): markedly increased activity
Fusarium nivale
  synergistic effect of active ingredient mixture (percentage of Fusarium-infected plants): good synergistic effect
